For assay [1], the system named is 786-O cells. The experiment in a line: Dose-dependent anti-proliferative effects on 786-O cells (dose response). The note with it: for ED75 / ED90: single drug dose response; for EC50: Homo sapiens, 786-0, single drug dose response, read-out: ED50 (the source's name). Format: cell-based, human.
Assay [2] deals with PNX0010 RCC cells. Nature of the assay: Cell viability, […]-BLUE assay, PNX0010. It counts as cell-based, human. Details: dose or concentration left out as unconfirmed. The settings on record: 72 hours. The procedure: (§1) Treatment with lonafarnib can reinstate sensitivity of RCC cells to TKIs. Pharmacological inhibition of FTase enhances the antitumor activity of sunitinib. Referring to FIG. 3, in Panel A, PNX0010 and 786-O RCC cells were treated with various combinations of lonafarnib ([…]), sunitinib ([…]), and pazopanib ([…]) for 72 hours. Cell viability was examined using Blue […]-BLUE® assay (PROMEGA®). In Panel B, 786-O and PNX0010 RCC cells were treated with lonafarnib ([…]) and/or sunitinib ([…]) for 24 hours. DNA fragmentation was examined by the APO-BRDU kit (The Phoenix Flow Systems) followed by flow cytometry analysis.

Assay [3] deals with 786-O cells. The experiment in a line: Lysosomal sequestration of sunitinib by fluorescent microscopy. Format: cell-based, human. Details: Sequestration of sunitinib within lysosomes: dose or concentration left out as unconfirmed.
Assay [4] deals with 786-O RCC cells. Nature of the assay: Cell viability, […]-BLUE assay, 786-O. It counts as cell-based, human. More on the design: dose or concentration left out as unconfirmed. The settings on record: 72 hours. The procedure: as §1
For assay [5], the system named is PNXC0010 RCC tumors. It counts as in vivo. The note with it: PNX0010 subcutaneous xenografts, C.B17/lcrscid mice, 40 mg/kg each drug, orally 3 times/week. The procedure:
PNX0010 subcutaneous xenografts were established in 6 week old male C.B17/lcrscid mice. The mice were treated orally 3 times/week with (i) 10% 2-hydroxypropyl-b-cyclodextrin in PBS (control); (ii) sunitinib (40 mg/kg); (iii) lonafarnib (40 mg/kg); or with sunitinib and lonafarnib combined (n=5 mice/group). Tumor volumes were calculated by the formula: (volume=0.52×(width)2×length).

Each structure is given as a SMILES string.

In assay [1], `CNC(=O)c1ccccc1Sc1ccc2c(/C=C/c3ccccn3)n[nH]c2c1` [Axitinib, axitinib] showed an ED75 of 7.5 µM and an ED90 of 65.1 µM.
Take `NC(=O)N1CCC(CC(=O)N2CCC([C@H]3c4ncc(Br)cc4CCc4cc(Cl)cc(Br)c43)CC2)CC1` [Lonafarnib, lonafarnib]: the “Effect on cell viability” value in assay [2] is on record as “modest effect”. Moreover, the “Sequestration of sunitinib within lysosomes” value in assay [3] (60 minutes) was “significantly reduced”. Besides, in assay [3] (effect of lonafarnib, data not shown), the “Total cellular accumulation of sunitinib” value is reported as “not affected”. Moreover, the “Effect on cell viability” value in assay [4] is “modest effect”. In assay [1], the EC50 is 3.8 µM, the ED75 is 63.3 µM and the ED90 is 5672.0 µM. The “Growth of xenograft tumors (tumor volume)” value in assay [5] is reported as “moderate decrease”.
Turning to `CCN(CC)CCNC(=O)c1c(C)[nH]c(/C=C2\C(=O)Nc3ccc(F)cc32)c1C` [Sunitinib, sunitinib], in assay [1], the EC50 is 2.4 µM, the ED75 is 6.7 µM and the ED90 came out at 44.3 µM.

Values taken from patent US12576075B2, “Combination therapies for treating cancer” (Institute For Cancer Research, priority 2018, dated 2026).
